Data reported in patent publication US20140081017A1, “Histone Deacetylase Inhibitors for Enhancing Activity of Antifungal Agents” (METHYLGENE INC., priority 2012, published 2014).
Converted amounts (≈) assume the structure as drawn. Read-outs that look alike come from different tables or passages of the source.

Assays:
C. glabrata = assay: Checkerboard FIC assay in combination with fluconazole (MIC alone and in combination, FICI); assay type: cell-based, Candida glabrata; conditions: for FICI of combination resulting in fluconazole MIC of: 2 ug/mL / FICI of combination resulting in fluconazole MIC of: 4 ug/mL / FICI of combination resulting in fluconazole MIC of: 8 ug/mL: FICI calculated using a fluconazole MIC of 16 μg/mL; for FICI of combination resulting in fluconazole MIC of: 2 ug/mL (value in parenthesis) / FICI of combination resulting in fluconazole MIC of: 4 ug/mL (value in parenthesis) / FICI of combination resulting in fluconazole MIC of: 8 ug/mL (value in parenthesis): FICI using a fluconazole MIC of 128 μg/mL; for MIC: Nakaseomyces glabratus; for Multiple of compound MIC to synergize fluconazole MIC to 2 ug/mL / Multiple of compound MIC to synergize fluconazole MIC to 4 ug/mL / Multiple of compound MIC to synergize fluconazole MIC to 8 ug/mL: concentration in combination as multiple of the compound's MIC alone; for Multiple of compound MIC to synergize fluconazole MIC to 2 ug/mL: fluconazole MIC 2 ug/mL; for Multiple of compound MIC to synergize fluconazole MIC to 4 ug/mL: fluconazole MIC 4 ug/mL; for Multiple of compound MIC to synergize fluconazole MIC to 8 ug/mL: fluconazole MIC 8 ug/mL; for Concentration of Methylgene compound to synergize fluconazole MIC to 2 ug/mL / Concentration of Methylgene compound to synergize fluconazole MIC to 4 ug/mL / Concentration of Methylgene compound to synergize fluconazole MIC to 8 ug/mL: in combination with fluconazole; for Concentration of Methylgene compound to synergize fluconazole MIC to 2 ug/mL: fluconazole MIC lowered to 2 ug/mL; for Concentration of Methylgene compound to synergize fluconazole MIC to 4 ug/mL: fluconazole MIC lowered to 4 ug/mL; for Concentration of Methylgene compound to synergize fluconazole MIC to 8 ug/mL: fluconazole MIC lowered to 8 ug/mL
Procedure, shortened: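 A fluconazole synergy checkerboard was run against C. glabrata in MOPS-buffered RPMI (pH 7.0) for about 48 h at 35 °C. Each agent was diluted 2-fold, with one row and one column holding each agent alone for MIC determination. FICI was calculated from these MICs, using a 0.5 McFarland inoculum diluted 1:100 per CLSI.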

Candida parapsilosis = assay: Minimal Inhibitory Concentration (MIC) assay, broth microdilution per CLSI; assay type: cell-based; conditions: Lodderomyces parapsilosis, read-out: Minimum Inhibitory Concentrations against Yeast Isolates, Candida parapsilosis;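 further: two read times 24 hr and 48 hr of incubation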
Procedure, shortened: (§1)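 Following CLSI procedure, compounds dissolved in DMSO on the assay day are diluted twofold and added to MOPS-buffered RPMI at pH 7.0. Saline suspensions of the yeasts, matched to 0.5 McFarland, are diluted 1:100 and inoculated, then plates incubate at 35° C for about 24-48 hr.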

Candida albicans = assay: as above; assay type: cell-based; conditions: Candida albicans, read-out: Minimum Inhibitory Concentrations against Yeast Isolates, Candida albicans;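 further: two read times 24 hr and 48 hr of incubation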
Procedure, shortened: as §1

Candida glabrata = assay: as above; assay type: cell-based; conditions: Nakaseomyces glabratus, read-out: Minimum Inhibitory Concentrations against Yeast Isolates, Candida glabrata;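 further: two read times 24 hr and 48 hr of incubation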
Procedure, shortened: as §1

[1] = MIC of the example compound alone against C. glabrata in the checkerboard assay, approximately 48 hr, read-out: Methylgene MIC
[2] = test compound alone, C. glabrata, approx. 48 hr at 35° C., read-out: Compound MIC
[3] = 24 hr reading (first value of cell 24 hr/48 hr)
[4] = 48 hr reading (second value of cell 24 hr/48 hr)

Structure (SMILES)	FICI of combination resulting in fluconazole MIC of: 2 ug/mL (C. glabrata; C. glabrata)	FICI of combination resulting in fluconazole MIC of: 4 ug/mL (C. glabrata; C. glabrata)	FICI of combination resulting in fluconazole MIC of: 8 ug/mL (C. glabrata; C. glabrata)	FICI of combination resulting in fluconazole MIC of: 2 ug/mL (value in parenthesis) (C. glabrata; C. glabrata)	FICI of combination resulting in fluconazole MIC of: 4 ug/mL (value in parenthesis) (C. glabrata; C. glabrata)	FICI of combination resulting in fluconazole MIC of: 8 ug/mL (value in parenthesis) (C. glabrata; C. glabrata)	MIC (C. glabrata; [1])	MIC (C. glabrata; [2])	Multiple of compound MIC to synergize fluconazole MIC to 2 ug/mL (C. glabrata)	Multiple of compound MIC to synergize fluconazole MIC to 4 ug/mL (C. glabrata)	Multiple of compound MIC to synergize fluconazole MIC to 8 ug/mL (C. glabrata)	Concentration of Methylgene compound to synergize fluconazole MIC to 2 ug/mL (C. glabrata; C. glabrata)	Concentration of Methylgene compound to synergize fluconazole MIC to 4 ug/mL (C. glabrata; C. glabrata)	Concentration of Methylgene compound to synergize fluconazole MIC to 8 ug/mL (C. glabrata; C. glabrata)	MIC (Candida parapsilosis; [3])	MIC (Candida parapsilosis; [4])	MIC (Candida albicans; [3])	MIC (Candida albicans; [4])	MIC (Candida glabrata; [3])	MIC (Candida glabrata; [4])
CC(C)(C(=O)NO)c1ccc(CCCCc2ccccc2)cc1 [Example 56, N-hydroxy-2-methyl-2-(4-(4-phenylbutyl)phenyl)propanamide]	0.563	0.625	0.490	0.516	0.531	0.303	0.5 µg/mL	0.5 µg/mL	(½x)	(½x)	(¼x)	0.25 µg/mL	0.25 µg/mL	0.12 µg/mL	> 2 µg/mL	> 2 µg/mL	> 2 µg/mL	> 2 µg/mL	0.25 µg/mL (≈ 0.803 µM)	0.5 µg/mL (≈ 1.61 µM)
CC(=O)Nc1ccccc1CCCCc1ccc(CC(=O)NO)cc1 [Example 45, 2-(4-(4-(2-acetamidophenyl)butyl)phenyl)-N-hydroxyacetamide]	> 1.063	> 0.625	> 0.750	> 1.016	> 0.531	> 0.563	> 16 µg/mL	> 16 µg/mL	–	–	–	>16 µg/mL	16 µg/mL	16 µg/mL	> 64 µg/mL	> 64 µg/mL	> 64 µg/mL	> 64 µg/mL	32 µg/mL (≈ 94 µM)	> 64 µg/mL
CC(CCCc1ccc(CC(=O)NO)cc1)c1ccccc1 (stereo not drawn) [Example 30, N-hydroxy-2-(4-(4-phenylpentyl)phenyl)acetamide]	0.563	0.365	0.490	0.516	0.271	0.303	0.5 µg/mL	0.5 µg/mL	(½x)	(¼x)	(¼x)	0.25 µg/mL	0.12 µg/mL	0.12 µg/mL	0.12 µg/mL (≈ 0.403 µM)	0.25 µg/mL (≈ 0.841 µM)	0.5 µg/mL (≈ 1.68 µM)	0.5 µg/mL (≈ 1.68 µM)	0.25 µg/mL (≈ 0.841 µM)	0.5 µg/mL (≈ 1.68 µM)
CC(=O)Nc1cccc(CCCCc2ccc(CC(=O)NO)cc2)c1 [Example 42, 2-(4-(4-(3-acetamidophenyl)butyl)phenyl)-N-hydroxyacetamide]	0.313	0.375	0.375	0.266	0.281	0.188	16 µg/mL	16 µg/mL	(¼x)	(¼x)	(⅛x)	4 µg/mL	4 µg/mL	2 µg/mL	> 32 µg/mL	> 32 µg/mL	> 32 µg/mL	> 32 µg/mL	8 µg/mL (≈ 23.5 µM)	16 µg/mL (≈ 47 µM)

Continued, values first:

FICI of combination resulting in fluconazole MIC of: 2 ug/mL (C. glabrata; C. glabrata)	FICI of combination resulting in fluconazole MIC of: 4 ug/mL (C. glabrata; C. glabrata)	FICI of combination resulting in fluconazole MIC of: 8 ug/mL (C. glabrata; C. glabrata)	FICI of combination resulting in fluconazole MIC of: 2 ug/mL (value in parenthesis) (C. glabrata; C. glabrata)	FICI of combination resulting in fluconazole MIC of: 4 ug/mL (value in parenthesis) (C. glabrata; C. glabrata)	FICI of combination resulting in fluconazole MIC of: 8 ug/mL (value in parenthesis) (C. glabrata; C. glabrata)	MIC (C. glabrata; [1])	MIC (C. glabrata; [2])	Multiple of compound MIC to synergize fluconazole MIC to 2 ug/mL (C. glabrata)	Multiple of compound MIC to synergize fluconazole MIC to 4 ug/mL (C. glabrata)	Multiple of compound MIC to synergize fluconazole MIC to 8 ug/mL (C. glabrata)	Concentration of Methylgene compound to synergize fluconazole MIC to 2 ug/mL (C. glabrata; C. glabrata)	Concentration of Methylgene compound to synergize fluconazole MIC to 4 ug/mL (C. glabrata; C. glabrata)	Concentration of Methylgene compound to synergize fluconazole MIC to 8 ug/mL (C. glabrata; C. glabrata)	MIC (Candida parapsilosis; [3])	MIC (Candida parapsilosis; [4])	MIC (Candida albicans; [3])	MIC (Candida albicans; [4])	MIC (Candida glabrata; [3])	MIC (Candida glabrata; [4])	Structure (SMILES)
1.063	0.605	0.490	1.016	0.511	0.303	0.25 µg/mL	0.25 µg/mL	(1x)	(½x)	(¼x)	0.25 µg/mL	0.12 µg/mL	0.06 µg/mL	0.12 µg/mL (≈ 0.403 µM)	0.25 µg/mL (≈ 0.841 µM)	0.25 µg/mL (≈ 0.841 µM)	0.25 µg/mL (≈ 0.841 µM)	0.25 µg/mL (≈ 0.841 µM)	0.25 µg/mL (≈ 0.841 µM)	Cc1ccc(CCCCc2ccc(CC(=O)NO)cc2)cc1 [Example 4, N-hydroxy-2-(4-(4-p-tolylbutyl)phenyl)acetamide]
0.125	0.155	0.280	0.078	0.061	0.093	4 µg/mL	4 µg/mL	( 1/16x)	( 1/16x)	( 1/16x)	0.25 µg/mL	0.12 µg/mL	0.12 µg/mL	> 8 µg/mL	> 8 µg/mL	> 8 µg/mL	> 8 µg/mL	0.5 µg/mL (≈ 1.39 µM)	8 µg/mL (≈ 22.3 µM)	O=C(Cc1ccc(CCCCc2ccc(-c3ccccc3)cc2)cc1)NO [Example 5, 2-(4-(4-(biphenyl-4-yl)butyl)phenyl)-N-hydroxyacetamide]
